Here are results for eight compounds from patent US20120121591A1 (priority 2009, published 2012).

What all share (format): cell-based
One test has as its target hKv1.3 (Homo sapiens, UniProt P22001). In words: cell-based. Particulars: Kv1.3 (IWQ) IC50 (nM, Avg).
The subject of test [1] is IL-2 secretion from T cells in human whole blood. The conditions noted are these: read-out: WB (IL-2) IC50 (nM, Avg).
Test [2] deals with IFN-g secretion from T cells in human whole blood. Particulars: read-out: WB (IFNg) IC50 (nM, Avg).

Sequence of hKv1.3 (P22001 whole entry): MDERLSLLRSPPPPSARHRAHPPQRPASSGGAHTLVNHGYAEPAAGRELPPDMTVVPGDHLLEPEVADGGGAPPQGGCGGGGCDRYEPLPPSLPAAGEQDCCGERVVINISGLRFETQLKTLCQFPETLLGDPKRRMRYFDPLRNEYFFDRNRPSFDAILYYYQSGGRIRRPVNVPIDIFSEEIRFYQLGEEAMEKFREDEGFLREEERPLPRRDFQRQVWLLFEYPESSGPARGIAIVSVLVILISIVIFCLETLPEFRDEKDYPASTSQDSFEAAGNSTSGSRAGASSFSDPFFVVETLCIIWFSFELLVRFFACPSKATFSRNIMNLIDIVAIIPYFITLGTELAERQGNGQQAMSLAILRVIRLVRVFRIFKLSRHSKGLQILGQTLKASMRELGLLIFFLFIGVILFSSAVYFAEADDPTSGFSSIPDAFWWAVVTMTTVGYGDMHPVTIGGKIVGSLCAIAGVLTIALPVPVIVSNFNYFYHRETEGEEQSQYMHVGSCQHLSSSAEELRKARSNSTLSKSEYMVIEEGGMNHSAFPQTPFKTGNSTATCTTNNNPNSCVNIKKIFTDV

`CC[C@H](C)[C@@H]1NC(=O)[C@@H](NC(=O)[C@H](CO)NC(=O)[C@@H](N)CCCNC(=N)N)CSSC[C@@H](C(N)=O)NC(=O)[C@H]([C@@H](C)O)NC(=O)CNC(=O)[C@@H]2CSSC[C@@H]3NC(=O)[C@H](CCCCN)NC(=O)[C@H](Cc4ccccc4)NC(=O)[C@H](C)NC(=O)[C@H]([C@@H](C)O)NC(=O)[C@H](CSSC[C@H](NC(=O)[C@H](Cc4ccccc4)NC(=O)[C@H](CO)NC(=O)[C@H](CC(C)C)NC(=O)[C@H](CCCNC(=N)N)NC(=O)[C@H](Cc4ccc(O)cc4)NC(=O)[C@H](CCCCN)NC(=O)[C@H](CCSC)NC(=O)[C@H](CO)NC(=O)[C@H](Cc4c[nH]cn4)NC(=O)[C@H](CCCCN)NC3=O)C(=O)N[C@@H](CCCNC(=N)N)C(=O)N[C@@H](CCCNC(=N)N)C(=O)N[C@@H]([C@@H](C)O)C(=O)N2)NC(=O)[C@H](CCCNC(=N)N)NC(=O)[C@H](CO)NC(=O)[C@H](CCCCN)NC(=O)[C@@H]2CCCN2C(=O)[C@H]([C@@H](C)CC)NC(=O)[C@H]([C@@H](C)O)NC(=O)[C@H](CC(=O)O)NC1=O` [[Lys16,Arg30]ShK-amide]: the IC50 against hKv1.3 was determined as 0.129 nM; in test [1], 0.151 nM; in test [2], 0.236 nM.
The matching figures for `CC[C@H](C)[C@@H]1NC(=O)[C@@H](NC(=O)[C@H](CO)NC(=O)[C@@H](N)CCCNC(=N)N)CSSC[C@@H](C(=O)N[C@@H](C)C(=O)O)NC(=O)[C@H]([C@@H](C)O)NC(=O)CNC(=O)[C@@H]2CSSC[C@@H]3NC(=O)[C@H](CCCCN)NC(=O)[C@H](Cc4ccccc4)NC(=O)[C@H](C)NC(=O)[C@H]([C@@H](C)O)NC(=O)[C@H](CSSC[C@H](NC(=O)[C@H](Cc4ccccc4)NC(=O)[C@H](CO)NC(=O)[C@H](CC(C)C)NC(=O)[C@H](CCCNC(=N)N)NC(=O)[C@H](Cc4ccc(O)cc4)NC(=O)[C@H](CCCCN)NC(=O)[C@H](CC(N)=O)NC(=O)[C@H](CO)NC(=O)[C@H](Cc4c[nH]cn4)NC(=O)[C@H](CCCCN)NC3=O)C(=O)N[C@@H](CCCNC(=N)N)C(=O)N[C@@H](CCCCN)C(=O)N[C@@H]([C@@H](C)O)C(=O)N2)NC(=O)[C@H](CCCNC(=N)N)NC(=O)[C@H](CO)NC(=O)[C@H](CCCCN)NC(=O)[C@@H]2CCCN2C(=O)[C@H]([C@@H](C)CC)NC(=O)[C@H]([C@@H](C)O)NC(=O)[C@H](CC(=O)O)NC1=O` [[Lys16,Asn21]ShK-Ala]: 33 nM, 0.891 nM and 0.693 nM.
Turning to `CC[C@H](C)[C@@H]1NC(=O)[C@@H](NC(=O)[C@H](CO)NC(=O)[C@@H](N)CCCNC(=N)N)CSSC[C@@H](C(=O)N[C@@H](C)C(=O)O)NC(=O)[C@H]([C@@H](C)O)NC(=O)CNC(=O)[C@@H]2CSSC[C@@H]3NC(=O)[C@H](CCCCN)NC(=O)[C@H](Cc4ccccc4)NC(=O)[C@H](C)NC(=O)[C@H]([C@@H](C)O)NC(=O)[C@H](CSSC[C@H](NC(=O)[C@H](Cc4ccccc4)NC(=O)[C@H](CO)NC(=O)[C@H](CC(C)C)NC(=O)[C@H](CCCNC(=N)N)NC(=O)[C@H](Cc4ccc(O)cc4)NC(=O)[C@H](CCCCN)NC(=O)[C@H](CCC(N)=O)NC(=O)[C@H](CO)NC(=O)[C@H](Cc4c[nH]cn4)NC(=O)[C@H](CCCCN)NC3=O)C(=O)N[C@@H](CCCNC(=N)N)C(=O)N[C@@H](CCCCN)C(=O)N[C@@H]([C@@H](C)O)C(=O)N2)NC(=O)[C@H](CCCNC(=N)N)NC(=O)[C@H](CO)NC(=O)[C@H](CCCCN)NC(=O)[C@@H]2CCCN2C(=O)[C@H]([C@@H](C)CC)NC(=O)[C@H]([C@@H](C)O)NC(=O)[C@H](CC(=O)O)NC1=O` [[Lys16,Gln21]ShK-Ala], the IC50 against hKv1.3 worked out at 4.01 nM; in test [1] it was 0.168 nM; in test [2] it was 0.206 nM.
The matching figures for `CCCC[C@@H]1NC(=O)[C@H](CO)NC(=O)[C@H](Cc2c[nH]cn2)NC(=O)[C@H](CCC(=O)O)NC(=O)[C@@H]2CSSC[C@@H]3NC(=O)[C@H]([C@@H](C)O)NC(=O)[C@H](CCCCN)NC(=O)[C@H](CCCNC(=N)N)NC(=O)[C@H](CSSC[C@H](NC(=O)[C@H](CCCNC(=N)N)NC(=O)[C@H](CO)NC(=O)[C@H](CCCCN)NC(=O)[C@@H]4CCCN4C(=O)[C@H]([C@@H](C)CC)NC(=O)[C@H]([C@@H](C)O)NC(=O)[C@H](CC(=O)O)NC(=O)[C@H]([C@@H](C)CC)NC(=O)[C@@H](NC(=O)[C@H](CO)NC(=O)[C@@H](N)CCCNC(=N)N)CSSC[C@@H](C(N)=O)NC(=O)[C@H]([C@@H](C)O)NC(=O)CNC3=O)C(=O)N[C@@H]([C@@H](C)O)C(=O)N[C@@H](C)C(=O)N[C@@H](Cc3ccccc3)C(=O)N[C@@H](CCCCN)C(=O)N2)NC(=O)[C@H](Cc2ccccc2)NC(=O)[C@H](CO)NC(=O)[C@H](CC(C)C)NC(=O)[C@H](CCCNC(=N)N)NC(=O)[C@H](Cc2ccc(O)cc2)NC(=O)[C@H](CCCCN)NC1=O` [[Lys16,Glu18,Nle21]ShK-amide]: 0.28 nM, 0.477 nM and 0.929 nM.
In the same order, the values of `CCCC[C@@H]1NC(=O)[C@H](CO)NC(=O)[C@H](Cc2c[nH]cn2)NC(=O)[C@H](CCCCN)NC(=O)[C@@H]2CSSC[C@@H]3NC(=O)[C@H]([C@@H](C)O)NC(=O)[C@H](CCCCN)NC(=O)[C@H](CCCNC(=N)N)NC(=O)[C@H](CSSC[C@H](NC(=O)[C@H](CCCNC(=N)N)NC(=O)[C@H](CO)NC(=O)[C@H](CCCCN)NC(=O)[C@@H]4CCCN4C(=O)[C@H]([C@@H](C)CC)NC(=O)[C@H]([C@@H](C)O)NC(=O)[C@H](CC(=O)O)NC(=O)[C@H]([C@@H](C)CC)NC(=O)[C@@H](NC(=O)[C@H](CO)NC(=O)[C@@H](N)CCCNC(=N)N)CSSC[C@@H](C(=O)N[C@@H](C)C(=O)O)NC(=O)[C@H]([C@@H](C)O)NC(=O)CNC3=O)C(=O)N[C@@H]([C@@H](C)O)C(=O)N[C@@H](C)C(=O)N[C@@H](Cc3ccccc3)C(=O)N[C@@H](CCCCN)C(=O)N2)NC(=O)[C@H](Cc2ccccc2)NC(=O)[C@H](CO)NC(=O)[C@H](CC(C)C)NC(=O)[C@H](CCCNC(=N)N)NC(=O)[C@H](Cc2ccc(O)cc2)NC(=O)[C@H](CCCCN)NC1=O` [[Lys16,N1e21]ShK-Ala] are 33.3 nM, 0.305 nM and 0.515 nM.
For the compound `CCCC[C@@H]1NC(=O)[C@H](CO)NC(=O)[C@H](Cc2c[nH]cn2)NC(=O)[C@H](CCCCN)NC(=O)[C@@H]2CSSC[C@@H]3NC(=O)[C@H]([C@@H](C)O)NC(=O)[C@H](CCCCN)NC(=O)[C@H](CCCNC(=N)N)NC(=O)[C@H](CSSC[C@H](NC(=O)[C@H](CCCNC(=N)N)NC(=O)[C@H](CO)NC(=O)[C@H](CCCCN)NC(=O)[C@@H]4CCCN4C(=O)[C@H]([C@@H](C)CC)NC(=O)[C@H]([C@@H](C)O)NC(=O)[C@H](CC(=O)O)NC(=O)[C@H]([C@@H](C)CC)NC(=O)[C@@H](NC(=O)[C@H](CO)NC(=O)[C@@H](N)CCCNC(=N)N)CSSC[C@@H](C(=O)N[C@@H](CCC(=O)O)C(=O)O)NC(=O)[C@H]([C@@H](C)O)NC(=O)CNC3=O)C(=O)N[C@@H]([C@@H](C)O)C(=O)N[C@@H](C)C(=O)N[C@@H](Cc3ccccc3)C(=O)N[C@@H](CCCCN)C(=O)N2)NC(=O)[C@H](Cc2ccccc2)NC(=O)[C@H](CO)NC(=O)[C@H](CC(C)C)NC(=O)[C@H](CCCNC(=N)N)NC(=O)[C@H](Cc2ccc(O)cc2)NC(=O)[C@H](CCCCN)NC1=O` [[Lys16,N1e21]ShK-Glu], the IC50 came out at 22.5 nM against hKv1.3, 0.386 nM in test [1] and 0.621 nM in test [2].
The matching figures for `CCCC[C@@H]1NC(=O)[C@H](CO)NC(=O)[C@H](Cc2c[nH]cn2)NC(=O)[C@H](CCCCN)NC(=O)[C@@H]2CSSC[C@@H]3NC(=O)[C@H]([C@@H](C)O)NC(=O)[C@H](CCCCN)NC(=O)[C@H](CCCNC(=N)N)NC(=O)[C@H](CSSC[C@H](NC(=O)[C@H](CCCNC(=N)N)NC(=O)[C@H](CO)NC(=O)[C@H](CCCCN)NC(=O)[C@@H]4CCCN4C(=O)[C@H]([C@@H](C)CC)NC(=O)[C@H]([C@@H](C)O)NC(=O)[C@H](CC(=O)O)NC(=O)[C@H]([C@@H](C)CC)NC(=O)[C@@H](NC(=O)[C@H](CO)NC(=O)[C@@H](N)CCCNC(=N)N)CSSC[C@@H](C(=O)N[C@@H](Cc4ccc(O)cc4)C(=O)O)NC(=O)[C@H]([C@@H](C)O)NC(=O)CNC3=O)C(=O)N[C@@H]([C@@H](C)O)C(=O)N[C@@H](C)C(=O)N[C@@H](Cc3ccccc3)C(=O)N[C@@H](CCCCN)C(=O)N2)NC(=O)[C@H](Cc2ccccc2)NC(=O)[C@H](CO)NC(=O)[C@H](CC(C)C)NC(=O)[C@H](CCCNC(=N)N)NC(=O)[C@H](Cc2ccc(O)cc2)NC(=O)[C@H](CCCCN)NC1=O` [[Lys16,N1e21]ShK-Tyr]: 109 nM, 0.418 nM and 0.485 nM.
As to `CCCC[C@@H]1NC(=O)[C@H](CO)NC(=O)[C@H](Cc2c[nH]cn2)NC(=O)[C@H](CCCCN)NC(=O)[C@@H]2CSSC[C@@H]3NC(=O)[C@H]([C@@H](C)O)NC(=O)[C@H](CCCCN)NC(=O)[C@H](CCCNC(=N)N)NC(=O)[C@H](CSSC[C@H](NC(=O)[C@H](CCCNC(=N)N)NC(=O)[C@H](CO)NC(=O)[C@H](CCCCN)NC(=O)[C@@H]4CCCN4C(=O)[C@H]([C@@H](C)CC)NC(=O)[C@H]([C@@H](C)O)NC(=O)[C@H](CC(=O)O)NC(=O)[C@H]([C@@H](C)CC)NC(=O)[C@@H](NC(=O)[C@H](CO)NC(=O)[C@@H](N)CCCNC(=N)N)CSSC[C@@H](C(=O)O)NC(=O)[C@H]([C@@H](C)O)NC(=O)CNC3=O)C(=O)N[C@@H]([C@@H](C)O)C(=O)N[C@@H](C)C(=O)N[C@@H](Cc3ccccc3)C(=O)N[C@@H](CCCCN)C(=O)N2)NC(=O)[C@H](Cc2ccccc2)NC(=O)[C@H](CO)NC(=O)[C@H](CC(C)C)NC(=O)[C@H](CCCNC(=N)N)NC(=O)[C@H](Cc2ccc(O)cc2)NC(=O)[C@H](CCCCN)NC1=O` [[Lys16,N1e21]ShK], the IC50 on hKv1.3 came out at 0.13 nM; in test [1], 0.249 nM; in test [2], 0.848 nM.
